Laboratory results: ChEMBL document CHEMBL4483862, “Open-source discovery of chemical leads for next-generation chemoprotective antimalarials” (2018)

Tested on: Plasmodium berghei
Assay: Luciferase/luciferin-expressing antifolate-resistant parasites were used to infect a culture of HepG2 cells that were pre-incubated with compounds. Infected hepatocytes emit light due to the luciferase reaction. Assay results are presented as the percent inhibition of light emission compared to control. […]
Format: functional
Conditions: sporozoite; for IC90: read-out: LUCIFERASE INFECTION ASSAY - IC90
[1] = read-out: LUCIFERASE INFECTION ASSAY - IC50

Compound	IC90	also measured
CCOc1cc2c(cc1NC(=O)CCCCCn1c(=S)[nH]c3ccccc3c1=O)OC(C)C2 (stereo not drawn)	> 10 µM	IC50 [1]: > 10 µM
COc1ccc(-c2cnc(N)c(-c3ccc(O)c(OC)c3)c2)cc1	3.77 µM	IC50 (HEPG2TOX_HILL_SLOPE 8.61, HEPG2TOX_R_SQUARED 0.753, PBLUC_HILL_SLOPE 13.4, PBLUC_R_SQUARED 0.628, read-out: LUCIFERASE INFECTION ASSAY - IC50): 3.2 µM
Nc1ccc(OC2=C(Cl)C(=O)c3ccccc3C2=O)cc1	5.91 µM	IC50 (HEPG2TOX_HILL_SLOPE 2.46, HEPG2TOX_R_SQUARED 0.976, PBLUC_HILL_SLOPE 10.6, PBLUC_R_SQUARED 0.396, read-out: LUCIFERASE INFECTION ASSAY - IC50): 4.8 µM
Cc1cn2c(/C=c3\s/c(=C\C(=O)c4ccccc4C)n(C)c3=O)c(C)nc2s1	0.619 µM	IC50 (HEPG2TOX_HILL_SLOPE 2.41, HEPG2TOX_R_SQUARED 0.966, PBLUC_HILL_SLOPE 72.2, PBLUC_R_SQUARED 0.61, read-out: LUCIFERASE INFECTION ASSAY - IC50): 0.6 µM
CCCCNC(=O)c1c(NC(=O)c2cc(OC)cc(OC)c2)nc2ccccn12	5.61 µM	IC50 (FFLUC_HILL_SLOPE 9.35, FFLUC_R_SQUARED 0.0665, PBLUC_HILL_SLOPE 7.48, PBLUC_R_SQUARED 0.629, read-out: LUCIFERASE INFECTION ASSAY - IC50): 4.18 µM
O=C(OC1CCCCC1)c1ccc(NC(=O)C2CCCCC2)cc1	> 10 µM	IC50 (PBLUC_HILL_SLOPE 6.21, PBLUC_R_SQUARED 0.113, read-out: LUCIFERASE INFECTION ASSAY - IC50): 9.48 µM
Cc1c(C)c(C)c(S(=O)(=O)N2CCN(C(C)C(=O)NC3CC3)CC2)c(C)c1C (stereo not drawn)	9.56 µM	IC50 (PBLUC_HILL_SLOPE 4.98, PBLUC_R_SQUARED 0.411, read-out: LUCIFERASE INFECTION ASSAY - IC50): 6.15 µM
O=C(NC(c1ccccc1)C1CC1)C1=NN(c2ccccc2)C(=O)CN1 (stereo not drawn)	9.85 µM	IC50 (PBLUC_HILL_SLOPE 18.7, PBLUC_R_SQUARED 0.556, read-out: LUCIFERASE INFECTION ASSAY - IC50): 8.76 µM
COc1ccccc1C(=O)c1cnc(Nc2cccc(Cc3ccccc3)c2)[nH]1	> 8.61 µM	IC50 (HEPG2TOX_HILL_SLOPE 11.7, HEPG2TOX_R_SQUARED 0.773, PBLUC_HILL_SLOPE 15.1, PBLUC_R_SQUARED 0.204, read-out: LUCIFERASE INFECTION ASSAY - IC50): 7.82 µM
O=C(Nc1cccc(Cl)c1)n1nccc1-c1cc(-c2ccccc2)no1	> 9.05 µM	IC50 [1]: > 9.05 µM
FC(F)(F)Oc1cccc(-c2ccc3ncc(-c4cccnc4)n3n2)c1	3.34 µM	IC50 (PBLUC_HILL_SLOPE 3.42, PBLUC_R_SQUARED 0.748, read-out: LUCIFERASE INFECTION ASSAY - IC50): 1.76 µM
COc1ccc(-c2noc(CN3CCN(C(=O)c4nn(-c5cccc(Cl)c5)nc4C)CC3)n2)cc1	> 10 µM	IC50 (HEPG2TOX_HILL_SLOPE 14.4, HEPG2TOX_R_SQUARED 0.481, PBLUC_HILL_SLOPE 15.9, PBLUC_R_SQUARED 0.0941, read-out: LUCIFERASE INFECTION ASSAY - IC50): 9.11 µM
FC(F)(F)c1ccc(/C=N/Nc2c(Cl)cc(C(F)(F)F)cc2Cl)cc1	> 8.23 µM	IC50 [1]: > 8.23 µM
COc1ccc(-c2csc3ncnc(NCc4cccnc4)c23)cc1	> 10 µM	IC50 (HEPG2TOX_HILL_SLOPE 6.97, HEPG2TOX_R_SQUARED 0.88, PBLUC_HILL_SLOPE 2.74, PBLUC_R_SQUARED 0.795, read-out: LUCIFERASE INFECTION ASSAY - IC50): 6.71 µM
CCOC(=O)c1c(-c2ccc(Cl)cc2)csc1NC(=O)CSc1nc2c(c(CC)c1C#N)C(=O)CC(C)(C)C2	> 10 µM	IC50 (FFLUC_HILL_SLOPE 17.7, FFLUC_R_SQUARED 0.746, PBLUC_HILL_SLOPE 12.9, PBLUC_R_SQUARED 0.506, read-out: LUCIFERASE INFECTION ASSAY - IC50): 9.02 µM
O=C(Nc1cccc(-c2nc(-c3cccc(F)c3)cs2)c1)C1CC1	> 10 µM	IC50 (PBLUC_HILL_SLOPE 2.07, PBLUC_R_SQUARED 0.228, read-out: LUCIFERASE INFECTION ASSAY - IC50): 5.44 µM
FC(F)Oc1ccc(-c2cs/c(=N\c3cccnc3)n2CC2CCCO2)cc1 (stereo not drawn)	> 10 µM	IC50 [1]: 4.16 µM
Cc1cc(C(=O)COc2ccc(C(N)=O)cc2)c(C)n1-c1ccc2c(c1)OCO2	5.43 µM	IC50 (HEPG2TOX_HILL_SLOPE 1.28, HEPG2TOX_R_SQUARED 0.792, PBLUC_HILL_SLOPE 4.73, PBLUC_R_SQUARED 0.266, read-out: LUCIFERASE INFECTION ASSAY - IC50): 3.41 µM
COc1cc(NC(=O)c2sccc2Oc2ccc(C(F)(F)F)cc2[N+](=O)[O-])c(Cl)cc1Cl	5.34 µM	IC50 (FFLUC_HILL_SLOPE 15.3, FFLUC_R_SQUARED 0.803, PBLUC_HILL_SLOPE 1.96, PBLUC_R_SQUARED 0.575, read-out: LUCIFERASE INFECTION ASSAY - IC50): 1.74 µM
COCCNc1cc(C(C)C)nc2c(-c3ccccc3)cnn12	> 10.6 µM	IC50 (PBLUC_HILL_SLOPE 1.73, PBLUC_R_SQUARED 0.539, read-out: LUCIFERASE INFECTION ASSAY - IC50): 3.04 µM

Compound	IC90	also measured
C=C(C)C(=O)Oc1ccc(Oc2c(F)c(F)c(-c3c(F)c(F)c(Oc4ccc(OC(=O)C(=C)C)cc4)c(F)c3F)c(F)c2F)cc1	> 10 µM	IC50 [1]: > 10 µM
Cn1ccc2cc(-c3cnc4cnc(-c5ccc(N)nc5)cn34)ccc21	5.78 µM	IC50 (HEPG2TOX_HILL_SLOPE 1.74, HEPG2TOX_R_SQUARED 0.96, PBLUC_HILL_SLOPE 2.26, PBLUC_R_SQUARED 0.858, read-out: LUCIFERASE INFECTION ASSAY - IC50): 2.18 µM
O=C(Nc1nc(-c2ccco2)c(-c2ccco2)s1)c1cnc(Cl)c(Cl)c1	> 10 µM	IC50 [1]: > 10 µM
O=C(Nc1ccc(CN2CCCC2)cc1)c1[nH]nc2ccccc12	5.09 µM	IC50 (FFLUC_HILL_SLOPE 0.453, FFLUC_R_SQUARED 0.794, PBLUC_HILL_SLOPE 1.12, PBLUC_R_SQUARED 0.946, read-out: LUCIFERASE INFECTION ASSAY - IC50): 0.718 µM
CCOC(=O)COc1ccccc1/C=C(/C#N)S(=O)(=O)c1ccccc1	> 8.89 µM	IC50 [1]: > 8.89 µM
CNc1nc2cnc(Nc3ccc(C(C)C)cc3)cc2n1-c1cc(OC)c(OC)c(OC)c1	> 10 µM	IC50 (HEPG2TOX_HILL_SLOPE 3.92, HEPG2TOX_R_SQUARED 0.032, PBLUC_HILL_SLOPE 0.581, PBLUC_R_SQUARED 0.333, read-out: LUCIFERASE INFECTION ASSAY - IC50): > 10 µM
COc1cccc(-c2cc3c(Nc4cccc(N(C)C)c4)nccc3n2C)c1	8.25 µM	IC50 (PBLUC_HILL_SLOPE 3.57, PBLUC_R_SQUARED 0.3, read-out: LUCIFERASE INFECTION ASSAY - IC50): 4.46 µM
CN(C)CCNc1nc2sc3c(c2c(=O)n1-c1ccccc1)CCCCC3	> 8.63 µM	IC50 (PBLUC_HILL_SLOPE 1.45, PBLUC_R_SQUARED 0.611, read-out: LUCIFERASE INFECTION ASSAY - IC50): 8.23 µM
Cc1ccc2nc(COc3ccc(C(=O)NC4(C)CCS(=O)(=O)C4)cc3)cn2c1 (stereo not drawn)	> 10 µM	IC50 [1]: > 10 µM
Cc1sc2nc(CSc3ccc([N+](=O)[O-])c(C(F)(F)F)c3)nc(O)c2c1C	8.65 µM	IC50 (HEPG2TOX_HILL_SLOPE 3.24, HEPG2TOX_R_SQUARED 0.988, PBLUC_HILL_SLOPE 5.99, PBLUC_R_SQUARED 0.334, read-out: LUCIFERASE INFECTION ASSAY - IC50): 5.99 µM
Cc1onc(-c2c(Cl)cccc2Cl)c1-c1nc(-c2cc(-c3ccccc3)c(C(F)(F)F)s2)cs1	> 6.14 µM	IC50 (FFLUC_HILL_SLOPE 14.8, FFLUC_R_SQUARED 0.219, HEPG2TOX_HILL_SLOPE 0.104, HEPG2TOX_R_SQUARED 0.184, PBLUC_HILL_SLOPE 1.63, PBLUC_R_SQUARED 0.31, read-out: LUCIFERASE INFECTION ASSAY - IC50): > 6.14 µM
CCc1cc[n+](CC(=O)Nc2cc3oc4ccccc4c3cc2OC)cc1	9.36 µM	IC50 (HEPG2TOX_HILL_SLOPE 8.94, HEPG2TOX_R_SQUARED 0.562, PBLUC_HILL_SLOPE 18.1, PBLUC_R_SQUARED 0.422, read-out: LUCIFERASE INFECTION ASSAY - IC50): 8.29 µM
CCN(CC(=O)Nc1ccc2c(c1)OCCO2)C(=O)CCCc1nc2ccccc2s1	> 10 µM	IC50 [1]: > 10 µM
CC(C)(C)OC(=O)Nc1ccc(C(=O)NCC2(c3ccccc3)CC2)cc1	> 10 µM	IC50 [1]: > 10 µM
NC1=Nc2cccc3cccc(c23)N1	12.9 µM	IC50 (FFLUC_HILL_SLOPE 1.44, FFLUC_R_SQUARED 0.698, HEPG2TOX_HILL_SLOPE 2.55, HEPG2TOX_R_SQUARED 0.966, PBLUC_HILL_SLOPE 3.15, PBLUC_R_SQUARED 0.786, read-out: LUCIFERASE INFECTION ASSAY - IC50): 6.42 µM
Cc1cc(C(=O)N(C(=O)NC2CCCCC2)C2CCCCC2)c(C)n1-c1ccccc1	8.67 µM	IC50 [1]: 1.12 µM
CSc1ccc(C=C2C(=O)OC(C)(C)OC2=O)s1	> 11.6 µM	IC50 (HEPG2TOX_HILL_SLOPE 0.602, HEPG2TOX_R_SQUARED 0.801, PBLUC_HILL_SLOPE 0.853, PBLUC_R_SQUARED 0.0835, read-out: LUCIFERASE INFECTION ASSAY - IC50): > 11.6 µM
Cc1cc(C(=O)NNC(=O)c2ccc3ccccc3n2)c2cnn(Cc3cccs3)c2n1	9.16 µM	IC50 (HEPG2TOX_HILL_SLOPE 8.79, HEPG2TOX_R_SQUARED 0.448, PBLUC_HILL_SLOPE 5.17, PBLUC_R_SQUARED 0.697, read-out: LUCIFERASE INFECTION ASSAY - IC50): 5.99 µM
CC(C)c1cccc(Nc2nnc(C(O)c3cccc(N(C)C)c3)s2)c1 (stereo not drawn)	> 10 µM	IC50 (HEPG2TOX_HILL_SLOPE 0.177, HEPG2TOX_R_SQUARED 0.124, PBLUC_HILL_SLOPE 3.19, PBLUC_R_SQUARED 0.0119, read-out: LUCIFERASE INFECTION ASSAY - IC50): > 10 µM
